Data taken from patent publication US7279582B2, “Retroviral protease inhibiting compounds” (priority 1995, dated 2007).

Legend:
[1] = test system: uninfected MT4 cells; type: cell-based; conditions: n=4 duplicate determinations, read-out: LC50 (the source's name)
Source text: (§1) The anti-HIV activity of the compound of the invention can be determined in MT4 cells according to the following procedure. MT4 cells were infected with cell-free supernatant of HIVIIIB (previously frozen with known 50% tissue culture infectious dose (TCID50) at 0.003 multiplicity of infection (MOI) for one hour. After one hour infection, cells were washed twice to remove residual viruses, resuspended in culture media and seeded into 96-well tissue culture plates at 1×10^4 cells per well with various half-log dilutions of compounds. Uninfected cells are included as toxicity and cell controls. RPMI 1640 media (Gibco) with 10% fetal bovine serum were used as culture media. Various concentrations of human serum (Sigma) 50%, 25% and 12.5% were added to culture media resulting in final concentration of 60%, 35% and 22.5% total serum. All assay plates were incubated in 37 deg. cent. incubator for 5 days. MTT (sigma, 5 mg/ml stock in PBS) was added to all wells at 25 ul per well, incubate for 4 hours. 20% SDS with 0.02 N HCI in water was added at 50 ul per well to lyse cells. Plates incubated overnight for complete lyses were read on a microtitre plate reader at 570/650 nm wavelengths to determine cell optical density (O.D.). Raw data were analysed for percent inhibition by the following formula: O.D. test well−O.D. virus control×100 O.D. cell control−O.D. virus control The 50% effective concentration (EC50) was calculated by the median effect equation (Chou, 1975, Proc. Int. Cong. Pharmacol. 6th p. 619) to determine the efficacy of compound. The 50% lethal concentration (LC50) was calculated using uninfected MT4 cells.
(§2) Under these conditions, the following data were obtained (n=4 duplicate determinations: […]

[2] = test system: HIVIIIB; experiment: Anti-HIV activity in MT4 cells infected with HIVIIIB (MTT readout); type: cell-based; conditions: 0% plasma, 5 days, n=4 duplicate determinations
Source text: as §1, §2

[3] = molecular target: HIV protease (Human immunodeficiency virus type 1 group M subtype B, UniProt P04585); experiment: Fluorogenic assay for screening inhibitors of HIV protease; type: biochemical; conditions: Inhibitor Concentration 0.5 nanomolar
Procedure: Fluorogenic Assay for Screening Inhibitors of HIV Protease
The inhibitory potency of the compound of the invention can be determined by the following method.
The compound of the invention is dissolved in DMSO and a small aliquot further diluted with DMSO to 100 times the final concentration desired for testing. The reaction is carried out in a 6×50 mm tube in a total volume of 300 microliters. The final concentrations of the components in the reaction buffer are: 125 mM sodium acetate, 1 M sodium chloride, 5 mM dithiothreitol, 0.5 mg/ml bovine serum albumin, 1.3 μM fluorogenic substrate, 2% (v/v) dimethylsulfoxide, pH 4.5. After addition of inhibitor, the reaction mixture is placed in the fluorometer cell holder and incubated at 30° C. for several minutes. The reaction is initiated by the addition of a small aliquot of cold HIV protease. The fluorescence intensity (excitation 340 nm, emmision 490 nM) is recorded as a function of time. The reaction rate is determined for the first six to eight minutes. The observed rate is directly proportional to the moles of substrate cleaved-per unit time. The percent inhibition is 100×(1−(rate in presence of inhibitor)/(rate in absence of inhibitor)).
Fluorogenic substrate: Dabcyl-Gaba-Ser-Gln-Asn-Tyr-Pro-lle-Val-Gln-EDANS wherein DABCYL=4-(4-dimethylamino-phenyl)azobenzoic acid, Gaba=γ-aminobutyric acid, and EDANS=5-((2-aminoethyl)amino)-naphthalene-1-sulfonic acid.

**Q.** For `Cc1ccnc(C)c1OCC(=O)N[C@@H](Cc1ccccc1)[C@@H](O)C[C@H](Cc1ccccc1)NC(=O)[C@H](C(C)C)N1CCNC1=O` [Example 15, (2S,3S,5S)-2-(2,4-Dimethyl-pyridin-3-oxy-acetyl)amino-3-hydroxy-5-(2S-(1-imidazolidin-2-onyl)-3-methyl-butanoyl)amino-1,6-diphenylhexane], which CC50 [1] is on record?
**A.** > 100 µM

**Q.** And the IC50 [2]?
**A.** 0.119 µM

**Q.** And the “Percent Inhibition” value [3]?
**A.** 48%

**Q.** Which CC50 [1] does the source give for `Cc1cccc(C)c1OCC(=O)N[C@@H](Cc1ccccc1)[C@@H](O)C[C@H](Cc1ccccc1)NC(=O)[C@H](C(C)C)N1CCCC1=O` [Example 17C, (2S,3S,5S)-2-(2,6-Dimethylphenoxyacetyl)amino-3-hydroxy-5-(2S-(1-pyrrolidin-2-onyl)-3-methyl-butanoyl)amino-1,6-diphenylhexane] here?
**A.** 19 µM

**Q.** And the IC50 [2]?
**A.** 0.051 µM

**Q.** What about the “Percent Inhibition” value [3] of the same molecule?
**A.** 87.2%

**Q.** How did the CC50 [1] turn out when `Cc1cccc(C)c1OCC(=O)N[C@@H](Cc1ccccc1)[C@@H](O)C[C@H](Cc1ccccc1)NC(=O)[C@H](C(C)C)N1C(=O)CCC1=O` [Example 18C, (2S,3S,5S)-2-(2,6-Dimethylphenoxyacetyl)amino-3-hydroxy-5-(2S-(1-pyrrolidin-2,5-dionyl)-3-methyl-butanoyl)amino-1,6-diphenylhexane] was run?
**A.** 19.1 µM

**Q.** And the IC50 [2]?
**A.** 0.329 µM

**Q.** And the “Percent Inhibition” value [3]?
**A.** 57.8%

**Q.** With `Cc1cccc(C)c1OCC(=O)N[C@@H](Cc1ccccc1)[C@@H](O)C[C@H](Cc1ccccc1)NC(=O)[C@H](C(C)C)N1CCC(=O)NC1=O` [Example 25E, (2S,3S,5S)-2-(2,6-Dimethylphenoxyacetyl)amino-3-hydroxy-5-[2S-(1-tetrahydro-pyrimid-2,4-dionyl)-3-methylbutanoyl]amino-1,6-diphenylhexane] as the molecule, how does the CC50 [1] read?
**A.** 22.9 µM

**Q.** And the IC50 [2]?
**A.** 0.012 µM

**Q.** What about the “Percent Inhibition” value [3] of the same molecule?
**A.** 100%

**Q.** How did the CC50 [1] turn out when `Cc1cccc(C)c1OCC(=O)N[C@@H](Cc1ccccc1)[C@@H](O)C[C@H](Cc1ccccc1)NC(=O)[C@H](C(C)C)N1CCNNC1=O` [Example 26H, (2S,3S,5S)-2-(2,6-Dimethylphenoxyacetyl)amino-3-hydroxy-5[2S-(4-aza-1-tetrahydro-pyrimid-2-onyl)-3-methyl-butanoyl]amino-1,6-diphenylhexane] was run?
**A.** 33 µM

**Q.** And the IC50 [2]?
**A.** 0.015 µM

**Q.** And the “Percent Inhibition” value [3]?
**A.** 94.6%

**Q.** `Cc1cccc(C)c1OCC(=O)N[C@@H](Cc1ccccc1)[C@@H](O)C[C@H](NC(=O)[C@H](C(C)C)N1CCCNC1=O)C(C)C` [Example 27D, (2S,3S,5S)-2-(2,6-Dimethylphenoxyacetyl)amino-3-hydroxy-5-[2S-(1-tetrahydro-pyrimid-2-onyl)-3-methylbutanoyl]amino-1-phenyl-6-methylheptane] was tested. Which CC50 [1] did it give?
**A.** 56.2 µM

**Q.** What about the IC50 [2] of the same molecule?
**A.** 0.03 µM

**Q.** What about the “Percent Inhibition” value [3] of the same molecule?
**A.** 92.9%

**Q.** How did the CC50 [1] turn out when `Cc1cccc(C)c1OCC(=O)N[C@@H](Cc1ccccc1)[C@@H](O)C[C@H](NC(=O)[C@H](C(C)C)N1CCC(=O)NC1=O)C(C)C` [Example 28, (2S,3S,5S)-2-(2,6-Dimethylphenoxyacetyl)amino-3-hydroxy-5-[2S-(1-tetrahydro-pyrimid-2,4-dionyl)-3-methylbutanoyl]amino-1-phenyl-6-methylheptane] was run?
**A.** 72.2 µM

**Q.** And the IC50 [2]?
**A.** 0.011 µM

**Q.** What about the “Percent Inhibition” value [3] of the same molecule?
**A.** 86.6%

**Q.** Which CC50 [1] does the source give for `Cc1cccc(C)c1OCC(=O)N[C@@H](Cc1ccccc1)[C@@H](O)C[C@H](Cc1ccccc1)NC(=O)[C@H](C(C)C)N1CCNC(=O)C1=O` [Example 29C, (2S,3S,5S)-2-(2,6-Dimethylphenoxyacetyl)amino-3-hydroxy-5-[2S-(1-piperazin-2,3-dionyl)-3-methylbutanoyl]amino-1,6-diphenylhexane] here?
**A.** 56 µM

**Q.** And the IC50 [2]?
**A.** 0.427 µM

**Q.** And the “Percent Inhibition” value [3]?
**A.** 72.6%

**Q.** For `Cc1cccc(C)c1OCC(=O)N[C@@H](Cc1ccccc1)[C@@H](O)C[C@H](Cc1ccccc1)NC(=O)[C@H](C(C)C)N1CC=NNC1=O` [Example 30B, (2S,3S,5S)-2-(2,6-Dimethylphenoxyacetyl)amino-3-hydroxy-5[2S-(4-aza-4,5-dehydro-1-pyrimid-2-onyl)-3-methyl-butanoyl]amino-1,6-diphenylhexane], which CC50 [1] is on record?
**A.** 18 µM

**Q.** And the IC50 [2]?
**A.** 0.003 µM

**Q.** What about the “Percent Inhibition” value [3] of the same molecule?
**A.** 91.0%
